Laboratory results reported in PubChem BioAssay (NCI).
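Briefly, cells in 96-well plates were exposed to five compound concentrations for 48 h, and endpoints were estimated by linear interpolation. TGI marks complete inhibition of growth.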

Key:
Test in all cases: growth of human tumour cells (NCI), 48 h
786-0 renal = tested on: 786-0 renal
HOP-92 NSCLC = tested on: HOP-92 NSCLC
MDA-N = tested on: MDA-N
NCI-H23 lung = tested on: NCI-H23 lung
SNB-75 CNS = tested on: SNB-75 CNS
MDA-MB-231 breast = tested on: MDA-MB-231 breast
U251 CNS = tested on: U251 CNS
MALME-3M melanoma = tested on: MALME-3M melanoma
NCI/ADR-RES ovarian = tested on: NCI/ADR-RES ovarian
T-47D breast = tested on: T-47D breast
IGROV1 ovarian = tested on: IGROV1 ovarian
TK-10 renal = tested on: TK-10 renal
SR leukemia = tested on: SR leukemia
UACC-257 melanoma = tested on: UACC-257 melanoma
LOX IMVI melanoma = tested on: LOX IMVI melanoma
HL-60(TB) leukemia = tested on: HL-60(TB) leukemia
ACHN renal = tested on: ACHN renal
RXF 393 renal = tested on: RXF 393 renal
A498 renal = tested on: A498 renal
DU-145 prostate = tested on: DU-145 prostate

SMILES | TGI (786-0 renal) | TGI (HOP-92 NSCLC) | TGI (MDA-N) | TGI (NCI-H23 lung) | TGI (SNB-75 CNS) | TGI (MDA-MB-231 breast) | TGI (U251 CNS) | TGI (MALME-3M melanoma) | TGI (NCI/ADR-RES ovarian) | TGI (T-47D breast) | TGI (IGROV1 ovarian) | TGI (TK-10 renal) | TGI (SR leukemia) | TGI (UACC-257 melanoma) | TGI (LOX IMVI melanoma) | TGI (HL-60(TB) leukemia) | TGI (ACHN renal) | TGI (RXF 393 renal) | TGI (A498 renal) | TGI (DU-145 prostate)
O=C(N/C(=C/c1ccc(Cl)cc1)c1nc2ccccc2c(=O)n1Nc1ccc([N+](=O)[O-])cc1[N+](=O)[O-])c1ccccc1 | > 100 µM | > 100 µM | > 100 µM | > 100 µM | > 100 µM | > 100 µM | > 100 µM | > 100 µM | > 100 µM | > 100 µM | > 100 µM | > 100 µM | > 100 µM | > 100 µM | > 100 µM |  |  |  |  | 
COC(=O)/C(=N\O)C(C(=O)C=C(C)C)C(=O)C(=O)Nc1ccccc1C (configuration not stated) | > 100 µM | > 100 µM |  | > 100 µM | > 100 µM |  | > 100 µM | > 100 µM |  |  | > 100 µM | > 100 µM | > 100 µM | > 100 µM | > 100 µM | > 100 µM | > 100 µM | > 100 µM | > 100 µM | 
COc1cc(C2C(Cl)C(=O)N2NC(=O)Cc2ccccc2)ccc1O (configuration not stated) | > 100 µM |  |  | > 100 µM | > 100 µM |  | > 100 µM | > 100 µM |  |  | > 100 µM | > 100 µM | 83.4 µM | > 100 µM | > 100 µM | 80.7 µM | > 100 µM | > 100 µM |  | 
CCCCCn1cnc2c1S(=O)(=O)N(C)C(NC(=O)c1ccccc1)=N2 | > 100 µM | > 100 µM |  | > 100 µM | > 100 µM |  | > 100 µM |  |  |  | > 100 µM | > 100 µM | > 100 µM | > 100 µM | > 100 µM | > 100 µM | > 100 µM |  | > 100 µM | 
O=C1C2Nc3ccccc3SC2C(=O)N1c1cccc([N+](=O)[O-])c1 (configuration not stated) | > 100 µM | > 100 µM |  | > 100 µM | > 100 µM |  | > 100 µM | > 100 µM |  |  | > 100 µM | > 100 µM | > 100 µM | > 100 µM | > 100 µM | > 100 µM | > 100 µM | > 100 µM | > 100 µM | 
N#C/C(=C\c1ccc(O)cc1O)C(N)=O | > 100 µM | > 100 µM |  | > 100 µM | 67.4 µM |  | > 100 µM | > 100 µM |  |  | > 100 µM | > 100 µM |  | > 100 µM | > 100 µM | > 100 µM | > 100 µM | 83.5 µM | > 100 µM | 
Nc1cnc2c(c1)c(=O)nc1n2CCS1 | > 100 µM | > 100 µM | > 100 µM | > 100 µM | > 100 µM | > 100 µM | > 100 µM | > 100 µM | > 100 µM |  |  | > 100 µM |  | > 100 µM | > 100 µM | > 100 µM | > 100 µM | > 100 µM | > 100 µM | > 100 µM
